# Marks after values point to notes of the source that are not given here.
# Columns and labels:
# [1] = test system: carrageenan-induced edema; experiment: Anti-inflammatory effect (carrageenan edema method); assay type: in vivo, rats of the Wistar strain; conditions: Rattus norvegicus; percent inhibition of carrageenan-induced edema; dose 25 mg/kg (*), oral
# Description: The percent inhibition against carrageenan-induced edema in rats of the Wistar strain, using the conventional method of C.A. Winter, E.A. Risley, G.W. Nuss [J. Pharmacol., Exp. Therap., 141, 369 (1963)]. Except where otherwise noted, the dose of test compound was 50 mg/kg.
# [2] = test system: inflammation induced by anti-rat IgG rabbit serum; experiment: Anti-inflammatory effect (reversed passive alusas reaction, Evans blue extraction); assay type: in vivo, rats of the Sprague-Dawley strain; conditions: 2.5 h, percent inhibition of inflammation relative to control group, dose 25 mg/kg (*), oral
# Description: The test animals were rats of the Sprague-Dawley strain, which had first been fasted for 17 hours. The hair was trimmed from their dorsal portions by means of a hair clipper, and 0.1 ml/site of anti-rat IgG rabbit serum was injected intracutaneously at the trimmed part to induce inflammation. Except in the case of the control animals, to which no anti-inflammatory drug was administered, the test drug was administered orally immediately before inflammation was induced. Except where otherwise noted, the dose of test compound was 50 mg/kg. Two hours after induction of inflammation, a 1% by volume solution of Evans blue in physiological saline was injected intravenously into the tail of each rat in an amount of 1 ml per each animal. 30 minutes after this injection, the rats were sacrificed with carbon dioxide and their skins were peeled off to extract the chromogen of the blue spots. In more detail, the skins were cut into small pieces and extracted with 5 ml of an extraction solvent at room temperature for 2 days. The supernatant obtained by centrifugation was then measured spectrophotometrically at an absorption wavelength of 605 nm. The percent inhibition of inflammation of the group of rats to which the test drug was administered was determined relative to the control group.
# [3] = test system: rats of the Wistar strain; experiment: Analgesic effect (Randall-Selitto method); assay type: in vivo; conditions: fraction of animals; dose 25 mg/kg (*), oral
# Description: These tests were conducted according to the Randall-Selitto method using rats of the Wistar strain [L.O. Randall, J.J. Selitto: Arch. int. Pharmacodyn. 111, 409 (1957)]. Except where otherwise noted, the dose of test compound was 50 mg/kg.
# [4] = Acute toxicity; assay type: in vivo; conditions: mouse, in vivo; fraction of animals; dose 300 mg/kg oral in 0.5% carboxymethyl cellulose, observed for 7 days
# Description: The test animals employed were male mice of the ddy strain (age: 5 weeks). […] The dose of test compound was 300 mg/kg.
smiles,measurement,setting,value
"Cc1ccc(-c2cnn3cc[nH]c23)cc1 [Example 35, 7-(p-methylphenyl)-1H-imidazo[1,2-b]pyrazole]",inhibition in vivo at 25 mg/kg,[1],56.4%
same,inhibition in vivo at 25 mg/kg,[2],69.9%
same,Analgesic effect (Randall-Selitto),[3],5/5*
same,mortality at 168 h,[4],30%

# Reference: patent EP0353047B1, “Use of imidazopyrazole derivatives as analgesics and anti-inflammatory agents” (Sankyo Company Limited, priority 1988, dated 1990)
